Results from PMC12412968, “Indolicidin derivatives as potent dual-action antifungal and antibacterial agents for the treatment of skin infections: A comprehensive study from in vitro to in vivo evaluation” (PLOS One, 2025).
≈ marks a conversion by molar mass, not a printed value. Read-outs that look alike come from different tables or passages of the source. Ends that are not written are not given here.

Columns and labels:
[1] = 64 µM in PBS pH 7.4, 25, 45, 65, 85°C and 37°C, shaking 600 rpm, HPLC-DAD 280 nm, tryptophan internal standard, duplicate
Method: Peptides were dissolved in phosphate-buffered saline (PBS, pH 7.0) and 10% SDS solution. The peptide concentration was determined by direct weighing and mixing. The secondary structure was analyzed using a circular dichroism (CD) spectrometer. Peptides (64 µM) were dissolved in PBS (pH 7.4) with tryptophan as an internal standard. The solution was incubated at 25°C, 45°C, 65°C, and 85°C with shaking at 600 rpm. Peptide quantification was performed using HPLC-DAD at 280 nm with an injection volume of 20 µL. Each experiment was conducted in duplicate, and data were processed using Excel based on peak areas of tryptophan and peptide. Peptides (40 µM) were dissolved in PBS (pH 8.0) and incubated with 0.0005% trypsin at 37°C under shaking (600 rpm). Samples were collected at 0, 15, and 30 minutes and analyzed by HPLC-DAD at 280 nm with an injection volume of 40 µL [20, 21].

Pseudomonas aeruginosa = format: cell-based; conditions: 24 h
Method: (§1) Bacteria (S. aureus, P. aeruginosa, S. epidermidis, E. coli, K. pneumoniae, Enterococcus) and Candida albicans from ATCC were cultured in appropriate media, adjusted to 10^6 CFU/mL before testing. The bacteria and fungal, taken from a deep freezer, were revived by culturing them in a nutrient-rich medium, to grow and form distinct colonies. These colonies were then diluted with physiological saline to reach a turbidity equivalent to 0.5 McFarland, corresponding to a bacterial and fungal concentration of 10⁸ CFU/mL. This suspension was further diluted with 0.9% saline to achieve a concentration of 10⁶ CFU/mL. Subsequently, the bacterial and fungal suspension were diluted 100-fold in Brain-Heart Infusion (BHI) broth to achieve a final concentration of 10⁴ CFU/mL. This bacterial and fungal suspension were used to determine the MIC values in the experiments. Peptides (IND and IND-4,11K) were diluted by 2-fold serial dilution in the range of […] and tested in 96-well plates containing Muller-Hinton (MH) medium. After adding bacteria (10^4 CFU/mL), the samples were incubated at 37°C for 24 h. MIC was determined as the lowest peptide concentration at which no bacterial growth was observed by measuring the optical density OD620 nm. […] The positive controls were Streptomycin for Gram-negative bacteria and Penicillin for Gram-positive bacteria. The negative control was 1X PBS solution. The positive control for antifungal activity was Nystatin.All experiments were performed in triplicate.

[2] = test system: S. aureus, S. epidermidis, E. coli, K. pneumoniae, E. faecium, and P. aeruginosa; format: cell-based; conditions: Staphylococcus aureus, Staphylococcus epidermidis and Enterococcus faecium
Method: as §1

Enterococcus faecium = format: cell-based; conditions: 24 h
Method: as §1

Staphylococcus aureus = format: cell-based; conditions: 24 h
Method: as §1

Candida albicans = format: cell-based; conditions: 24 h
Method: as §1

Klebsiella pneumoniae = format: cell-based; conditions: 24 h
Method: as §1

[3] = test system: Staphylococcus epidermidis; format: cell-based; conditions: 24 h
Method: as §1

trypsin = experiment: Enzymatic stability with trypsin; format: in vitro ADME; conditions: 40 µM in PBS pH 8.0, 0.0005% trypsin, 37°C, 600 rpm, 15 and 30 minutes, HPLC-DAD 280 nm, duplicate
red blood cell = experiment: Hemolysis assay; format: cell-based
Source text: The hemolysis assay results indicated a concentration-dependent effect of the peptides on red blood cell membrane integrity.

[4] = broth dilution, 96-well, MH medium, 10^4 CFU/mL, 37°C, OD620, triplicate
[5] = plated from MIC well and higher onto MH agar, triplicate

## CC[C@H](C)[C@H](N)C(=O)N[C@@H](CC(C)C)C(=O)N1CCC[C@H]1C(=O)N[C@@H](Cc1c[nH]c2ccccc12)C(=O)N[C@@H](CCCCN)C(=O)N[C@@H](Cc1c[nH]c2ccccc12)C(=O)N1CCC[C@H]1C(=O)N[C@@H](Cc1c[nH]c2ccccc12)C(=O)N[C@@H](Cc1c[nH]c2ccccc12)C(=O)N1CCC[C@H]1C(=O)N[C@@H](Cc1c[nH]c2ccccc12)C(=O)N[C@@H](CCCNC(=N)N)C(=O)N[C@@H](CCCNC(=N)N)C(N)=O [IND, Indolicidin]
[1]
  Thermal stability (retention time and peak area): remained largely unchanged
Pseudomonas aeruginosa; [4]
  MIC: >128 µM
Pseudomonas aeruginosa; [5]
  MBC: >128 µM
[2]
  MIC (range over organisms): 8 to 64 µM
Enterococcus faecium; [4]
  MIC: 32 µM (≈ 61 µg/mL)
Enterococcus faecium; [5]
  MBC: 32 µM (≈ 61 µg/mL)
Staphylococcus aureus; [4]
  MIC: 64 µM (≈ 122 µg/mL)
Staphylococcus aureus; [5]
  MBC: 64 µM (≈ 122 µg/mL)
Candida albicans; [4]
  MIC: 64 µM (≈ 122 µg/mL)
Candida albicans; [5]
  MBC: >128 µM
Klebsiella pneumoniae; [4]
  MIC: >128 µM
Klebsiella pneumoniae; [5]
  MBC: >128 µM
[3]; [4]
  MIC: 8 µM (≈ 15.3 µg/mL)
[3]; [5]
  MBC: 8 µM (≈ 15.3 µg/mL)
trypsin
  Enzymatic stability with trypsin: significant degradation
Red blood cell; peptide 2 uM
  Hemolysis activity: 3.04 ± 0.29%
Red blood cell; peptide 4 uM
  Hemolysis activity: 2.51 ± 0.24%
Red blood cell; peptide 8 uM
  Hemolysis activity: 3.05 ± 0.34%
Red blood cell; peptide 16 uM
  Hemolysis activity: 4.89 ± 0.03%
Red blood cell; peptide 32 uM
  Hemolysis activity: 10.33 ± 1.06%
Red blood cell; peptide 64 uM
  Hemolysis activity: 18.09 ± 1.57%
Red blood cell; peptide 128 uM
  Hemolysis activity: 30.91 ± 2.27%

## ILKWKWPWWKWRR-NH2 [IND-4,11K]
[1]
  Thermal stability (retention time and peak area): remained largely unchanged
Pseudomonas aeruginosa
  MBC: 128 µM
  MIC: 128 µM
Enterococcus faecium
  MBC: 32 µM
  MIC: 32 µM
Staphylococcus aureus
  MBC: 48 µM
  MIC: 48 µM
Candida albicans
  MBC: 32 µM
  MIC: 32 µM
Klebsiella pneumoniae
  MBC: 128 µM
  MIC: 128 µM
[3]
  MBC: 8 µM
  MIC: 8 µM
trypsin
  Enzymatic stability with trypsin: significant degradation
